The text below walks through data of ChEMBL document CHEMBL1152303, “Synthesis and biological evaluation of a series of liver-selective phosphonic acid thyroid hormone receptor agonists and their prodrugs” (J Med Chem, 2008).

The term Ki denotes the equilibrium dissociation constant of an inhibitor or competing ligand from its target. The ED50 is the midpoint of the dose-response relation.

The structures appear in SMILES notation.

The first data set relates to Rattus norvegicus. Briefly: Reduction in total plasma cholesterol level in cholesterol-fed Sprague-Dawley rat at 0.2 mg/kg, ip after 24 hrs. Further details: scale not given: the % may be the effect or the level left. As to conditions: route intraperitoneal. The format is functional.
Take `CCC(C)c1cc(Cc2c(C)cc(OCP(=O)(O)O)cc2C)ccc1O` (stereo not drawn): the Activity is given as 20.1%.

As for `CC(C)c1cc(Oc2c(Br)cc(OCP(=O)(O)O)cc2Br)ccc1O`, the Activity is 42.6%.

Take `CC(C)c1cc(Oc2c(I)cc(OCP(=O)(O)O)cc2I)ccc1O`: the Activity is reported as 44.7%.

Regarding `Cc1cc(NCP(=O)(O)O)cc(C)c1Cc1ccc(O)c(C(C)C)c1`, the Activity turned out to be 32.3%.

In turn, `CCc1cc(Cc2c(C)cc(OCP(=O)(O)O)cc2C)ccc1O` had an Activity of 7.5%.

With `CC(C)c1cc(Oc2c(Br)cc(CCP(=O)(O)O)cc2Br)ccc1O`, the Activity came to 34.5%.

Compound `CC(C)c1cc(Oc2c(Br)cc(NCP(=O)(O)O)cc2Br)ccc1O` registered an Activity of 47.7%.

Compound `CC(C)c1cc(Oc2c(I)cc(CP(=O)(O)O)cc2I)ccc1O` yielded an Activity of 39.4%.

`Cc1cc(OCP(=O)(O)O)cc(C)c1Cc1ccc(O)c(C(C)C)c1` [MB07344] came in with an Activity of 37.2%.

For a further data set, the system named is Rattus norvegicus. Kind of data set: Agonist activity at thyroid hormone receptor in Sprague-Dawley rat assessed as liver mGPDH activity at 1 mg/kg administered through osmotic pump infusion per ug protein. The format is functional.
Conditions: not given
As for `O=P(O)(O)Cc1cc(I)c(Oc2ccc(O)c(I)c2)c(I)c1`, the Activity stood at 5.38 U/min.

Regarding `N[C@@H](Cc1cc(I)c(Oc2ccc(O)c(I)c2)c(I)c1)C(=O)O` [LIOTHYRONINE], the Activity is 7.52 U/min.

For the compound `Cc1cc(OCP(=O)(O)O)cc(C)c1Cc1ccc(O)c(C(C)C)c1` [MB07344], the Activity is given as 7.37 U/min.

On to `Cc1cc(OCC(=O)O)cc(C)c1Cc1ccc(O)c(C(C)C)c1` [SOBETIROME], for which the Activity is on record as 7.88 U/min.

As for `O=C(O)Cc1cc(I)c(Oc2ccc(O)c(I)c2)c(I)c1` [TIRATRICOL], the Activity is 7.1 U/min.

A further data set has as its target T1, Thyroid hormone receptor beta (Homo sapiens, UniProt P10828).
T1 sequence (P10828 whole entry): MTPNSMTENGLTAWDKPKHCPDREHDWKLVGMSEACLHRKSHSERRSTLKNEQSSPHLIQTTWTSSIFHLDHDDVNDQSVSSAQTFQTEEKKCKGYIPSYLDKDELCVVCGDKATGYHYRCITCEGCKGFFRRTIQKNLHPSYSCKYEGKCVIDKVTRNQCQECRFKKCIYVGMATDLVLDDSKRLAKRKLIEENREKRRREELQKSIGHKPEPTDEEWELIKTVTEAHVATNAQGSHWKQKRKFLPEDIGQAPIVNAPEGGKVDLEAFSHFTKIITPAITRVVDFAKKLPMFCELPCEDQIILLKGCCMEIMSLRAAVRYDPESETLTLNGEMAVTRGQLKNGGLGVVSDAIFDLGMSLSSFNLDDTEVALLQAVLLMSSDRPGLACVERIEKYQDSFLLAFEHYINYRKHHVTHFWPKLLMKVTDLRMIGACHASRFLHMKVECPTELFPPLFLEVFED
Conditions: not given
Take `Cc1cc(OCP(=O)(O)O)cc(C)c1Oc1ccc(O)c(C(C)C)c1`: the Ki amounted to 25.4 nM.

On to `Cc1cc(NC(=O)C(=O)O)cc(C)c1Oc1ccc(O)c(C(C)C)c1`, for which the Ki came to 0.47 nM.

`Cc1cc(NCP(=O)(O)O)cc(C)c1Cc1ccc(O)c(C(C)C)c1` had a Ki of 9.1 nM.

`CC(C)c1cc(Oc2c(Br)cc(CCP(=O)(O)O)cc2Br)ccc1O` displayed a Ki of 2.5 nM.

Compound `CC(C)c1cc(Oc2c(Cl)cc(NCP(=O)(O)O)cc2Cl)ccc1O` showed a Ki of 30.5 nM.

For `CC(C)c1cc(Oc2c(Br)cc(CP(=O)(O)O)cc2Br)ccc1O`, the affinity, expressed as Ki, was 15.5 nM.

With `Cc1cc(OCP(=O)(O)O)cc(C)c1Cc1ccc(O)c(C(C)C)c1` [MB07344], the affinity, expressed as Ki, was 2.95 nM.

The test system of the next data set is Rattus norvegicus. Briefly: Reduction in total plasma cholesterol level in cholesterol-fed orally dosed Sprague-Dawley rat after 24 hrs relative to control. The format is functional. Also on record: scale not given: the % may be the effect or the level left.
Conditions: not given
`CCOC(=O)CNP(=O)(COc1cc(C)c(Cc2ccc(O)c(C(C)C)c2)c(C)c1)NCC(=O)OCC` displayed an Activity of 48%.

`Cc1cc(OCP(=O)(OCOC(=O)C(C)(C)C)OCOC(=O)C(C)(C)C)cc(C)c1Cc1ccc(O)c(C(C)C)c1`: the Activity stood at 46%.

System in a further data set: not listed separately
Kind of data set: Metabolic stability in human S9 liver fraction assessed as monoacid levels at 100 uM after 1 hr. The format is ADME, subcellular. As to conditions: s9, 1 h.
Consider `CCOC(=O)CNP(=O)(COc1cc(C)c(Cc2ccc(O)c(C(C)C)c2)c(C)c1)NCC(=O)OCC`, for which the Stability was 6%.

`Cc1cc(OCP(=O)(OCOC(=O)C(C)(C)C)OCOC(=O)C(C)(C)C)cc(C)c1Cc1ccc(O)c(C(C)C)c1`: the Stability was found to be 79%.

System in a further data set: not listed separately
Kind of data set: Metabolic stability in human liver S9 fraction assessed as activation rate at 100 uM after 1 hr. The format is ADME, subcellular. As to conditions: s9, 1 h.
As for `CCOC(=O)CNP(=O)(COc1cc(C)c(Cc2ccc(O)c(C(C)C)c2)c(C)c1)NCC(=O)OCC`, the Stability is recorded as 73 pmol/min/mg.

As to `Cc1cc(OCP(=O)(OCOC(=O)C(C)(C)C)OCOC(=O)C(C)(C)C)cc(C)c1Cc1ccc(O)c(C(C)C)c1`, the Stability was 134 pmol/min/mg.

Another data set has as its target T2, Thyroid hormone receptor alpha (Homo sapiens, UniProt P10827).
T2 sequence (P10827 whole entry): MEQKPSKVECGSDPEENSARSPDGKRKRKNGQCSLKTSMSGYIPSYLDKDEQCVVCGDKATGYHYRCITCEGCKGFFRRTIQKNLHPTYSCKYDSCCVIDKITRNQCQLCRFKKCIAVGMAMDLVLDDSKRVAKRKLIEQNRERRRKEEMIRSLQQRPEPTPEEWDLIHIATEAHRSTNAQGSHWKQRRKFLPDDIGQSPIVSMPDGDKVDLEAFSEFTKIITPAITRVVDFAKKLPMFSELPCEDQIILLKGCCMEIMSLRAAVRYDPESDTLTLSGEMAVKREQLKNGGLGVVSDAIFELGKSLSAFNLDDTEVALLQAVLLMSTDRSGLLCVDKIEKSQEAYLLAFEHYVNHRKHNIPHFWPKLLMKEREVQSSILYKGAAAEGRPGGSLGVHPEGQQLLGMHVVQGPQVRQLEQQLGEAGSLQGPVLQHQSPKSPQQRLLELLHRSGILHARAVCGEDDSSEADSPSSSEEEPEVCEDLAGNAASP
Conditions: not given
For `CCC(C)c1cc(Cc2c(C)cc(OCP(=O)(O)O)cc2C)ccc1O` (stereo not drawn), the Ki stood at 30.5 nM.

`Cc1cc(OCP(=O)(O)O)cc(C)c1Oc1ccc(O)c(C(C)C)c1`: the inhibitory constant (Ki) came to 183 nM.

As to `Cc1cc(NC(=O)C(=O)O)cc(C)c1Oc1ccc(O)c(C(C)C)c1`, the affinity corresponds to a Ki of 0.51 nM.

As to `Cc1cc(NCP(=O)(O)O)cc(C)c1Cc1ccc(O)c(C(C)C)c1`, the affinity corresponds to a Ki of 28.4 nM.

The compound `CC(C)c1cc(Oc2c(Br)cc(CCP(=O)(O)O)cc2Br)ccc1O` had an inhibition constant (Ki) of 42.1 nM.

`CC(C)c1cc(Oc2c(Br)cc(CP(=O)(O)O)cc2Br)ccc1O` had an inhibitory constant (Ki) of 235 nM.

The compound `COc1cc(OCP(=O)(O)O)cc(OC)c1Cc1ccc(O)c(C(C)C)c1` showed a Ki of 3300 nM.

The subject of a further data set is Rattus norvegicus. Kind of data set: Reduction in total plasma cholesterol level in cholesterol-fed Sprague-Dawley rat at 0.5 mg/kg, po after 24 hrs. The format is functional. Further details: scale not given: the % may be the effect or the level left.
Conditions: not given
`CCOC(=O)OCOP(=O)(COc1cc(C)c(Cc2ccc(O)c(C(C)C)c2)c(C)c1)OCOC(=O)OCC`: the Activity is 24%.

The compound `CCOC(=O)CNP(=O)(COc1cc(C)c(Cc2ccc(O)c(C(C)C)c2)c(C)c1)NCC(=O)OCC` gave an Activity of 42%.

Take `CCOC(=O)[C@H](C)NP(=O)(COc1cc(C)c(Cc2ccc(O)c(C(C)C)c2)c(C)c1)N[C@@H](C)C(=O)OCC`: the Activity is on record as 42%.

In turn, `CCOC(=O)C(C)(C)NP(=O)(COc1cc(C)c(Cc2ccc(O)c(C(C)C)c2)c(C)c1)NC(C)(C)C(=O)OCC` showed an Activity of 23%.

Consider `CC(=O)SCCOP(=O)(COc1cc(C)c(Cc2ccc(O)c(C(C)C)c2)c(C)c1)OCCSC(C)=O`, for which the Activity was found to be 20%.

`Cc1cc(OCP(=O)(OCOC(=O)OC(C)C)OCOC(=O)OC(C)C)cc(C)c1Cc1ccc(O)c(C(C)C)c1`: the Activity worked out at 24%.

`CCOC(=O)[C@H](Cc1ccccc1)NP(=O)(COc1cc(C)c(Cc2ccc(O)c(C(C)C)c2)c(C)c1)N[C@@H](Cc1ccccc1)C(=O)OCC` showed an Activity of 0%.

Turning to `CCOC(=O)[C@@H](NP(=O)(COc1cc(C)c(Cc2ccc(O)c(C(C)C)c2)c(C)c1)N[C@H](C(=O)OCC)C(C)C)C(C)C`, the Activity amounted to 13%.

Turning to `Cc1cc(OCP(=O)(OCOC(=O)C(C)(C)C)OCOC(=O)C(C)(C)C)cc(C)c1Cc1ccc(O)c(C(C)C)c1`, the Activity was found to be 33%.

In the case of `Cc1cc(OC[P@@]2(=O)OCC[C@@H](c3ccc(Cl)cc3)O2)cc(C)c1Cc1ccc(O)c(C(C)C)c1`, the Activity came to 28%.

On to `Cc1cc(OC[P@@]2(=O)OCC[C@@H](c3cccnc3)O2)cc(C)c1Cc1ccc(O)c(C(C)C)c1` (relative stereo), for which the Activity is listed as 39%.

`Cc1cc(OC[P@@]2(=O)OCC[C@@H](c3cccc(F)c3)O2)cc(C)c1Cc1ccc(O)c(C(C)C)c1` (relative stereo) showed an Activity of 46%.

With `Cc1cc(OC[P@@]2(=O)OCC[C@@H](c3cc(Cl)cc(Cl)c3)O2)cc(C)c1Cc1ccc(O)c(C(C)C)c1` (relative stereo), the Activity is listed as 29%.

In the case of `Cc1cc(OC[P@@]2(=O)OCC[C@@H](c3ccncc3)O2)cc(C)c1Cc1ccc(O)c(C(C)C)c1` (relative stereo), the Activity was determined as 29%.

Consider `Cc1cc(OC[P@@]2(=O)OCC[C@@H](c3cccc(Br)c3)O2)cc(C)c1Cc1ccc(O)c(C(C)C)c1` (relative stereo), for which the Activity turned out to be 0%.

In the next data set the test system is Rattus norvegicus. Briefly: Agonist activity at thyroid hormone receptor in Sprague-Dawley rat assessed as heart mGPDH activity at 1 mg/kg administered through osmotic pump infusion per ug protein. The format is functional.
Conditions: not given
Turning to `O=P(O)(O)Cc1cc(I)c(Oc2ccc(O)c(I)c2)c(I)c1`, the Activity came to 1.74 U/min.

Consider `N[C@@H](Cc1cc(I)c(Oc2ccc(O)c(I)c2)c(I)c1)C(=O)O` [LIOTHYRONINE], for which the Activity amounted to 4.18 U/min.

Regarding `Cc1cc(OCP(=O)(O)O)cc(C)c1Cc1ccc(O)c(C(C)C)c1` [MB07344], the Activity was determined as 1.66 U/min.

`Cc1cc(OCC(=O)O)cc(C)c1Cc1ccc(O)c(C(C)C)c1` [SOBETIROME]: the Activity is 4.08 U/min.

Regarding `O=C(O)Cc1cc(I)c(Oc2ccc(O)c(I)c2)c(I)c1` [TIRATRICOL], the Activity is given as 3.68 U/min.

System in another data set: not listed separately
Kind of data set: Metabolic stability in human S9 liver fraction assessed as prodrug remaining at 100 uM after 1 hr. The format is ADME, subcellular. As to conditions: s9, 1 h.
Take `CCOC(=O)CNP(=O)(COc1cc(C)c(Cc2ccc(O)c(C(C)C)c2)c(C)c1)NCC(=O)OCC`: the Stability is 70%.

`Cc1cc(OCP(=O)(OCOC(=O)C(C)(C)C)OCOC(=O)C(C)(C)C)cc(C)c1Cc1ccc(O)c(C(C)C)c1`: the Stability is 11%.

Another data set relates to Rattus norvegicus. Kind of data set: Reduction in total plasma cholesterol level in cholesterol-fed orally dosed Sprague-Dawley rat after 24 hrs. The format is functional. As to conditions: po.
`CCOC(=O)CNP(=O)(COc1cc(C)c(Cc2ccc(O)c(C(C)C)c2)c(C)c1)NCC(=O)OCC`: the 50% effective dose (ED50) came out at 0.1 mg/kg.

For the compound `Cc1cc(OCP(=O)(OCOC(=O)C(C)(C)C)OCOC(=O)C(C)(C)C)cc(C)c1Cc1ccc(O)c(C(C)C)c1`, the 50% effect level (ED50) was put at a dose of 0.7 mg/kg.
